Like-named read-outs stand apart in the source and are kept apart here.
Legend:
[1] = In vitro drug delivery rate across Carbosil membrane; format: in vitro ADME
Procedure: In vitro drug delivery rate determination from water-soluble PSA matrices was performed using human cadaver skin or a skin-imitating Carbosil membrane to protect the matrices from dissolving in the receptor solution. The patch was adhered to the center of a Carbosil membrane sheet of twice its area. The membrane margins were then wrapped around the sample. The back side of the packet was closely attached to a steel plate-holder to prevent direct contact of the matrix with the receptor solution. In a similar fashion, cadaver skin epidermis can be used instead of a Carbosil membrane. The holder with the wrapped sample was then submerged into an aqueous sink and in vitro drug delivery rate was determined using a USP rotating cylinder method paddle-over-disc. The rate of drug appearance rate in a receptor solution (0.15 M NaCl) at 35.0±0.5° C. was determined spectrophotometrically.

[2] = Styrene butadiene rubber matrix

Molecule	Delivery rate from hydrophilic matrix via Carbosil ([1]; hydrophilic PVP-PEG matrix) [μg/cm^2h]	Release rate from hydrophobic matrices (PIB matrix (Catapress ® TTS)) [μg/cm^2h]	Delivery rate from hydrophilic matrix via Carbosil [1] [μg/cm^2h]	Release rate from hydrophobic matrices [2] [μg/cm^2h]
Clc1cccc(Cl)c1N=C1NCCN1 [Clonidine]	5 ± 2	1.6 ± 0.2	–	–
O=[N+]([O-])OCC(CO[N+](=O)[O-])O[N+](=O)[O-] [Nitroglycerin]	–	–	160 ± 40	–
CC(C)NCC(O)COc1cccc2ccccc12 (stereo not shown) [Propranolol]	118 ± 25	–	–	56 ± 4
Silabolin	131 ± 30	–	–	16 ± 7
